Assay results published in PubChem BioAssay (NCI).
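Interpolation was linear, between the two tested concentrations surrounding the appropriate level; five concentrations were tested over 48 hours in 96-well plates. TGI: concentration producing complete growth inhibition.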

Experiments:
Experiment in all cases: NCI tumour cell line growth inhibition, 48 h
[1] = system: TK-10 renal
[2] = system: OVCAR-8 ovarian
[3] = system: SR leukemia
[4] = system: SF-295 CNS
[5] = system: SNB-75 CNS
[6] = system: EKVX NSCLC
[7] = system: SN12C renal
[8] = system: HT29 colon
[9] = system: RXF 393 renal
[10] = system: HOP-62 NSCLC
[11] = system: SK-OV-3 ovarian
[12] = system: IGROV1 ovarian
[13] = system: KM12 colon
[14] = system: RPMI-8226 leukemia
[15] = system: SF-268 CNS
[16] = system: SW-620 colon
[17] = system: CCRF-CEM leukemia
[18] = system: MALME-3M melanoma
[19] = system: UACC-257 melanoma
[20] = system: MCF7 breast
[21] = system: LOX IMVI melanoma
[22] = system: COLO 205 colon
[23] = system: MDA-MB-231 breast
[24] = system: DU-145 prostate
[25] = system: HCT-15 colon
[26] = system: HL-60(TB) leukemia
[27] = system: SK-MEL-5 melanoma
[28] = system: PC-3 prostate
[29] = system: K-562 leukemia
[30] = system: NCI-H23 lung
[31] = system: CAKI-1 renal
[32] = system: 786-0 renal
[33] = system: HCC-2998 colon
[34] = system: UACC-62 melanoma
[35] = system: MOLT-4 leukemia
[36] = system: SK-MEL-28 melanoma
[37] = system: A549 NSCLC
[38] = system: T-47D breast
[39] = system: M14 melanoma
[40] = system: MDA-N
[41] = system: HCT-116 colon
[42] = system: OVCAR-5 ovarian
[43] = system: BT-549 breast
[44] = system: NCI/ADR-RES ovarian
[45] = system: A498 renal
[46] = system: MDA-MB-435
[47] = system: SK-MEL-2 melanoma
[48] = system: U251 CNS
[49] = system: HOP-92 NSCLC
[50] = system: ACHN renal
[51] = system: SF-539 CNS
[52] = system: OVCAR-4 ovarian
[53] = system: UO-31 renal
[54] = system: NCI-H226 lung
[55] = system: OVCAR-3 ovarian
[56] = system: SNB-19 CNS
[57] = system: NCI-H460 lung

SMILES: Cc1c(CCN=P(c2ccccc2)(c2ccccc2)c2ccccc2)c(=O)n2c([nH]c3ccccc32)c1C#N
- TGI [1]: > 10 µM
- TGI [2]: > 10 µM
- TGI [3]: > 10 µM
- TGI [4]: > 10 µM
- TGI [5]: > 10 µM
- TGI [6]: > 10 µM
- TGI [7]: > 10 µM
- TGI [8]: > 10 µM
- TGI [9]: > 10 µM
- TGI [10]: > 10 µM
- TGI [11]: > 10 µM
- TGI [12]: > 10 µM
- TGI [13]: > 10 µM
- TGI [14]: > 10 µM
- TGI [15]: > 10 µM
- TGI [16]: > 10 µM
- TGI [17]: > 10 µM
- TGI [18]: > 10 µM
- TGI [19]: > 10 µM
- TGI [20]: > 10 µM
- TGI [21]: > 10 µM
- TGI [22]: > 10 µM
- TGI [23]: > 10 µM
- TGI [24]: > 10 µM
- TGI [25]: > 10 µM
- TGI [26]: > 10 µM
- TGI [27]: > 10 µM
- TGI [28]: > 10 µM
- TGI [29]: > 10 µM
- TGI [30]: > 10 µM
- TGI [31]: > 10 µM
- TGI [32]: > 10 µM
- TGI [33]: > 10 µM
- TGI [34]: > 10 µM
- TGI [35]: > 10 µM
- TGI [36]: > 10 µM
- TGI [37]: > 10 µM
- TGI [38]: > 10 µM
- TGI [39]: > 10 µM
- TGI [40]: > 10 µM

SMILES: N[C@@H]1C[C@H](N)c2c(Cl)sc(Cl)c21
- TGI [41]: > 100 µM
- TGI [2]: > 100 µM
- TGI [3]: > 100 µM
- TGI [4]: > 100 µM
- TGI [5]: > 100 µM
- TGI [42]: > 100 µM
- TGI [6]: > 100 µM
- TGI [7]: > 100 µM
- TGI [43]: > 100 µM
- TGI [9]: > 100 µM
- TGI [10]: > 100 µM
- TGI [12]: > 100 µM
- TGI [13]: > 100 µM
- TGI [44]: > 100 µM
- TGI [14]: > 100 µM
- TGI [45]: > 100 µM
- TGI [46]: > 100 µM
- TGI [47]: > 100 µM
- TGI [48]: > 100 µM
- TGI [49]: > 100 µM
- TGI [16]: > 100 µM
- TGI [17]: > 100 µM
- TGI [19]: > 100 µM
- TGI [20]: > 100 µM
- TGI [50]: > 100 µM
- TGI [51]: > 100 µM
- TGI [52]: > 100 µM
- TGI [53]: > 100 µM
- TGI [21]: > 100 µM
- TGI [22]: > 100 µM
- TGI [23]: > 100 µM
- TGI [24]: > 100 µM
- TGI [25]: > 100 µM
- TGI [27]: > 100 µM
- TGI [28]: > 100 µM
- TGI [29]: > 100 µM
- TGI [30]: > 100 µM
- TGI [31]: > 100 µM
- TGI [32]: > 100 µM
- TGI [54]: > 100 µM
- TGI [33]: > 100 µM
- TGI [34]: > 100 µM
- TGI [35]: > 100 µM
- TGI [36]: > 100 µM
- TGI [55]: > 100 µM
- TGI [56]: > 100 µM
- TGI [37]: > 100 µM
- TGI [38]: > 100 µM
- TGI [39]: > 100 µM
- TGI [57]: > 100 µM
- TGI [40]: > 100 µM
